{"source": "patent US11547698B2", "about": "“Aryl hydrocarbon receptor modulators” (ARIAGEN, INC., priority 2016, dated 2023)"}
{"molecular_target": "T1, AhR receptor (Homo sapiens, UniProt P35869)", "T1 construct": "cells of reporter gene expressing natural (Human Hepatoma Huh-7) AhR receptor; endogenous in cells; host or cells: Human hepatoma Huh-7 reporter cells (firefly luciferase under a receptor-specific response element)", "T1 sequence (P35869 11-848)": "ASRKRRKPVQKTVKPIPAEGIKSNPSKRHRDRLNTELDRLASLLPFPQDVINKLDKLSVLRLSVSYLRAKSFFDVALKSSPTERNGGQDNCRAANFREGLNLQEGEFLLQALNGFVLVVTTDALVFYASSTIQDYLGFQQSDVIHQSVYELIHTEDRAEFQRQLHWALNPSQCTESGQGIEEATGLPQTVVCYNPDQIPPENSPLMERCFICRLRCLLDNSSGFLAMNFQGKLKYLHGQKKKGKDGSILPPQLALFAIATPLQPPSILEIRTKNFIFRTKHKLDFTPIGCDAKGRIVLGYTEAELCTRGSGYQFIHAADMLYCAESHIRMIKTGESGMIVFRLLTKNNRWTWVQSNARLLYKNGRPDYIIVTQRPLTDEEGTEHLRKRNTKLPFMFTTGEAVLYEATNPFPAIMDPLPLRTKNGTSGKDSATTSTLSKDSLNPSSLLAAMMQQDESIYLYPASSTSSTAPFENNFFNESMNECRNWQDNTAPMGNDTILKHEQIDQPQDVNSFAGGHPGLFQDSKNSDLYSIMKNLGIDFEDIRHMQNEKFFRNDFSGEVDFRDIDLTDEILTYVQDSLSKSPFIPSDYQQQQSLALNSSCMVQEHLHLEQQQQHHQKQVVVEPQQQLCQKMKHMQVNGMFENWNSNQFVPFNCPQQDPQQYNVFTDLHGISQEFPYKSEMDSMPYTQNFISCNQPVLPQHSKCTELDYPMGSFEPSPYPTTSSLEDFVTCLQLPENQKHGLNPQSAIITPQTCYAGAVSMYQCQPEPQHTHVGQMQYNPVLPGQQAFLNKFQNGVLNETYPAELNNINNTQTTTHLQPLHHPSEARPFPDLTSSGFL", "assay": "AhR agonist assay (luciferase reporter gene cells)", "type": "cell-based", "conditions": "reporter cells expressing natural (Human Hepatoma Huh-7) AhR receptor, firefly luciferase, 24 hours at 37° C., 0.1% DMSO", "procedure": "Experimental material (plasmids): cells of reporter gene expressing natural (Human Hepatoma Huh-7) AhR receptor, in which reporter vector comprises a functional firefly luciferase gene connecting to an upstream receptor specific genetic response element (GRE).\nAhR agonist test includes following three steps:\n1, Implanting into cells: a suspension of reporter cell of AhR receptor was prepared in cell recovery medium (CRM; containing 10% charcoal-treated FBS). Then the suspension (100 μL) was assigned to wells in a white culture plate with 96 wells.\n2, Before the experiment was about to begin, Master Stocks was diluted to be a processing medium of “concentration of 2 X” by use of appropriate compound screening assay medium (CSM: containing 10% charcoal-treated FBS). Test compounds were diluted with gradient method by use of CSM medium containing 0.2% DMSO to make the final concentration of DMSO in each well of each treatment group being 0.1%. The processing medium was added to culture plate (100 μL/well) on which cells containing reporter gene had been laid in advance in wells by means of double duplicate. The culture plate was placed in an incubator of 37° C. for 24 hours.\n3, Fluorescence detection and analysis: after incubation, the processing medium was discarded and luciferase detection reagent was added 100 μL/well. Ave RLU (mean relative fluorescence intensity) of each well and coefficient of variation for each set of experiments were detected. Ratio of Ave RLU^Test Cmpd of treatment groups with test compound of different concentrations to Ave RLU^Vehicle of blank control group can determine activity quantitatively of AhR receptor under influence of test compound of different concentrations and activating multiples as well as EC50.\nProcessing method of data may refer to J. Biomol.", "units": {"EC50": "nM"}}
{"molecule": "COC(=O)c1c[nH]c(C(=O)c2c[nH]c3ccccc23)n1", "note": "[Compound 23]", "EC50": "1 to 1000"}
{"molecule": "COC(=O)c1nsc(C(=O)c2c[nH]c3ccccc23)n1", "note": "[Compound 8]", "EC50": "1000 to 10000"}
{"molecule": "COC(=O)C1CSC(c2csc(C(=O)c3c[nH]c4ccccc34)n2)=N1", "note": "(stereo not shown) [Compound 32-1]", "EC50": "1 to 1000"}
{"molecule": "CC(C)c1csc(C(=O)c2c[nH]c3ccccc23)n1", "note": "[Compound 21]", "EC50": "1 to 1000"}
{"molecule": "CO/N=C(/c1nc(C(=O)OC)cs1)c1c[nH]c2ccccc12", "note": "[Compound 25-1]", "EC50": "1000 to 10000"}
{"molecule": "COCCOCCOCCOCC(=O)OCC(=O)OCn1cc(C(=O)c2nc(C(=O)OC)cs2)c2ccccc21", "note": "[Compound 7]", "EC50": "1 to 1000"}
{"molecule": "CO/N=C(\\c1nc(C(=O)OC)cs1)c1c[nH]c2ccccc12", "note": "[Compound 25-2]", "EC50": "1000 to 10000"}
{"molecule": "O=C(c1nc(C2=NCCO2)cs1)c1c[nH]c2ccccc12", "note": "[Compound 33-1]", "EC50": "1 to 1000"}
{"molecule": "COC(=O)c1csc(-c2csc(C(=O)c3c[nH]c4ccccc34)n2)n1", "note": "[Compound 32-2]", "EC50": "1 to 1000"}
{"molecule": "COC(=O)CNC(=O)c1csc(C(=O)c2c[nH]c3ccccc23)n1", "note": "[Compound 27]", "EC50": "1 to 1000"}
{"molecule": "COC(=O)C1CSC(C(=O)c2c[nH]c3ccc(OC)cc23)=N1", "note": "(stereo not shown) [Compound 19-1]", "EC50": "1 to 1000"}
{"molecule": "Nc1nc(-c2csc(C(=O)c3c[nH]c4ccccc34)n2)cs1", "note": "[Compound 44]", "EC50": "1 to 1000"}
{"molecule": "O=C(c1nc(-c2ncco2)cs1)c1c[nH]c2ccccc12", "note": "[Compound 33-2]", "EC50": "1 to 1000"}
{"molecule": "O=C(c1nc(C2=NCCS2)cs1)c1c[nH]c2ccccc12", "note": "[Compound 31-1]", "EC50": "1 to 1000"}
{"molecule": "O=C(c1nc(-c2c[nH]cn2)cs1)c1c[nH]c2ccccc12", "note": "[Compound 43-2]", "EC50": "1 to 1000"}
{"molecule": "O=C(c1nc(-c2nccs2)cs1)c1c[nH]c2ccccc12", "note": "[Compound 31-2]", "EC50": "1 to 1000"}
{"molecule": "CC(C)[C@H](N)C(=O)n1cc(C(=O)c2nc(-c3nccs3)cs2)c2ccccc21", "note": "[Compound 42-2]", "EC50": "1 to 1000"}
{"molecule": "O=C(c1nc(-c2ccccn2)cs1)c1c[nH]c2ccccc12", "note": "[Compound 22]", "EC50": "1 to 1000"}
{"molecule": "COC(=O)c1csc(C(=O)c2cn(C3OC(CO)C(O)C(O)C3O)c3ccccc23)n1", "note": "(stereo not shown) [Compound 38-4]", "EC50": "1 to 1000"}
{"molecule": "COC(=O)c1csc(C(=O)c2cn(COC(=O)[C@@H](N)C(C)(C)C)c3ccccc23)n1", "note": "[Compound 2-2]", "EC50": "1 to 1000"}
{"molecule": "O=C(c1nc(-c2cnccn2)cs1)c1c[nH]c2ccccc12", "note": "[Compound 39]", "EC50": "1 to 1000"}
{"molecule": "COC(=O)c1csc(C(=O)c2cn(C3OC(COC(C)=O)C(OC(C)=O)C(OC(C)=O)C3OC(C)=O)c3ccccc23)n1", "note": "(stereo not shown) [Compound 38-2]", "EC50": "1 to 1000"}
{"molecule": "COCCOCCOCCOCC(=O)OCn1cc(C(=O)c2nc(C(=O)OC)cs2)c2ccccc21", "note": "[Compound 6]", "EC50": "1 to 1000"}
{"molecule": "COC(=O)c1ccc(C(=O)c2c[nH]c3ccccc23)nc1", "note": "[Compound 18]", "EC50": "1000 to 10000"}
{"molecule": "CC(C)[C@H](NC(=O)OC(C)(C)C)C(=O)n1cc(C(=O)c2nc(-c3nccs3)cs2)c2ccccc21", "note": "[Compound 42-1]", "EC50": "1 to 1000"}
{"molecule": "COC(=O)COCn1cc(C(=O)c2nc(C(=O)OC)cs2)c2ccccc21", "note": "[Compound 3]", "EC50": "1 to 1000"}
{"molecule": "O=C(c1nc(-c2ccco2)cs1)c1c[nH]c2ccccc12", "note": "[Compound 40]", "EC50": "1 to 1000"}
{"molecule": "COC(=O)c1nnc(C(=O)c2c[nH]c3ccccc23)o1", "note": "[Compound 34]", "EC50": "1000 to 10000"}
{"molecule": "COC(=O)c1csc(/C(=N/O)c2c[nH]c3ccccc23)n1", "note": "[Compound 26-1]", "EC50": "1000 to 10000"}
{"molecule": "COC(=O)c1csc(C(=O)c2cn(C3OC(COC(C)=O)C(OC(C)=O)C(OC(C)=O)C3OC(C)=O)c3ccccc23)n1", "note": "(stereo not shown) [Compound 38-1]", "EC50": "1 to 1000"}
{"molecule": "COC(=O)c1ccc(C(=O)c2c[nH]c3ccccc23)n1C", "note": "[Compound 12]", "EC50": "1 to 1000"}
{"molecule": "COC(=O)c1csc(/C(=N\\O)c2c[nH]c3ccccc23)n1", "note": "[Compound 26-2]", "EC50": "1000 to 10000"}
{"molecule": "COC(=O)c1coc(-c2csc(C(=O)c3c[nH]c4ccccc34)n2)n1", "note": "[Compound 30-2]", "EC50": "1 to 1000"}
{"molecule": "O=C(c1nc(C2CC2)cs1)c1c[nH]c2ccccc12", "note": "[Compound 41]", "EC50": "1 to 1000"}
{"molecule": "COCCOCCOCCOC(=O)n1cc(C(=O)c2nc(C(=O)OC)cs2)c2ccccc21", "note": "[Compound 5]", "EC50": "1 to 1000"}
{"molecule": "CC(C)c1nc(C(=O)c2c[nH]c3ccccc23)cs1", "note": "[Compound 9]", "EC50": "1 to 1000"}
{"molecule": "COC(=O)c1csc(C(=O)c2c[nH]c3ccc(OC)cc23)n1", "note": "[Compound 19-2]", "EC50": "1 to 1000"}
{"molecule": "O=C(c1nc(-c2nnn[nH]2)cs1)c1c[nH]c2ccccc12", "note": "[Compound 35]", "EC50": "1000 to 10000"}
{"molecule": "COC(=O)c1csc(C(=O)c2cn(C(=O)[C@@H](N)C(C)C)c3ccccc23)n1", "note": "[Compound 4-2]", "EC50": "1 to 1000"}
{"molecule": "COC(=O)c1csc(C(=O)c2c[nH]c3ccccc23)c1", "note": "[Compound 15]", "EC50": "10000 to 100000"}
{"molecule": "COC(=O)c1csc(C(=O)c2cn(COC(=O)[C@@H](N)C(C)C)c3ccccc23)n1", "note": "[Compound 1-2]", "EC50": "1 to 1000"}
{"molecule": "COC(=O)c1csc(C(=O)c2cn(CO)c3ccccc23)n1", "note": "[Compound 37]", "EC50": "1 to 1000"}
{"molecule": "COC(=O)c1csc(C(=O)c2cn(C3OC(COC(C)=O)C(O)C(O)C3O)c3ccccc23)n1", "note": "(stereo not shown) [Compound 38-3]", "EC50": "1 to 1000"}
{"molecule": "COC(=O)c1csc(Cc2c[nH]c3ccccc23)n1", "note": "[Compound 28]", "EC50": "10000 to 100000"}
{"molecule": "COC(=O)[C@@H]1COC(c2csc(C(=O)c3c[nH]c4ccccc34)n2)=N1", "note": "[Compound 30-1]", "EC50": "1 to 1000"}
{"molecule": "O=C(c1nc(-c2nnc[nH]2)cs1)c1c[nH]c2ccccc12", "note": "[Compound 36]", "EC50": "1 to 1000"}
